Source: patent US12576051B2, “Methods and composition for treating respiratory obstructive diseases” (The Regents of the University of California, priority 2019, dated 2026)

System: Muc5ac mucin from porcine airway mucus
Assay: Mucolytic effect on Muc5ac mucin from porcine airway mucus (western blot, densitometry)
Assay type: biochemical
Conditions: 2 mM, 30 mins at 37° C.; compound preincubated in HCO3-Ringer, HCO3-Ringer/acetic acid or acetate buffer pH 4.5
Description: (§1) (Upper panel) Identification of Muc5ac mucin (black arrow) by western blot, from airway mucus sample collected in HCO3-Ringer and treated with or without 2 mM of compound 646 for 30 mins at 37° C. Lane CTRL, untreated sample as control. Lane Bic, sample treated with compound preincubated in HCO3-Ringer; lane Bic/Ac, sample treated with compound preincubated with 1:1 HCO3-Ringer/Acetic acid 0.1N; lane Ac, sample treated with compound preincubated in acetate buffer 1M, pH 4.5. Lower panel, densitometric analysis of the protein bands identified with the Muc5ac mucin antibody. Densitometric signal of the sample control (CTRL) was normalized as 100% (% arbitrary units).
as §1, with “647” for “646”, “4.5, as described under Methods.” for “4.5.”, “units). Control is pH 8, Bic 7.4, Bic/AC 6.9 AND AC 6.2” for “units).”
as §1, with “655” for “646”
as §1, with “compounds 656” for “compound 646”

2-aminoethane-1-d-1-thiol hydrochloride [Compound 646]
influence of acidic and basic conditions on mucolytic activity on porcine Muc5ac mucin: enhanced under acidic conditions
